From ChEMBL document CHEMBL1130962, “Selective alpha-1a adrenergic receptor antagonists. Effects of pharmacophore regio- and stereochemistry on potency and selectivity” (Bioorg Med Chem Lett, 1998)

Legend:
[1] = target: Mu-type opioid receptor (Mus musculus, UniProt P42866); experiment: Opioid binding affinity was evaluated using [3H]DAMGO as radioligand
[2] = target: T1, Alpha-1B adrenergic receptor (Homo sapiens, UniProt P35368); experiment: Binding affinity against human Alpha-1b adrenergic receptor was evaluated by cloned receptor binding assay
T1 sequence (P35368 whole entry): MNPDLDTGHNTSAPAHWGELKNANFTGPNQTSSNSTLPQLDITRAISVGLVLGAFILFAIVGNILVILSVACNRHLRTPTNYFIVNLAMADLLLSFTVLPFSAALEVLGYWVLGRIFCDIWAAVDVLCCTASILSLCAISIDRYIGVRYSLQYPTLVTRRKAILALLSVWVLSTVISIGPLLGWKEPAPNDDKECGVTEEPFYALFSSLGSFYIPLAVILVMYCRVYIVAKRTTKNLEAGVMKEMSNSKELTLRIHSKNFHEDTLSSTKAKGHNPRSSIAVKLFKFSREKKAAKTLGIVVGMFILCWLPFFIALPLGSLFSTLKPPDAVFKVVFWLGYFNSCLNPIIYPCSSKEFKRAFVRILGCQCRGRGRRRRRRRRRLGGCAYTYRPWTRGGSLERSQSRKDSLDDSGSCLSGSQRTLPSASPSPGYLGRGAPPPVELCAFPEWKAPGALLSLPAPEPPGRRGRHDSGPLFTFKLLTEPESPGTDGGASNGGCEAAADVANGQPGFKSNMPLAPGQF

[3] = target: T2, Alpha-1D adrenergic receptor (Homo sapiens, UniProt P25100); experiment: Binding affinity against human Alpha-1d adrenergic receptor was evaluated by cloned receptor binding assay
T2 sequence (P25100 whole entry): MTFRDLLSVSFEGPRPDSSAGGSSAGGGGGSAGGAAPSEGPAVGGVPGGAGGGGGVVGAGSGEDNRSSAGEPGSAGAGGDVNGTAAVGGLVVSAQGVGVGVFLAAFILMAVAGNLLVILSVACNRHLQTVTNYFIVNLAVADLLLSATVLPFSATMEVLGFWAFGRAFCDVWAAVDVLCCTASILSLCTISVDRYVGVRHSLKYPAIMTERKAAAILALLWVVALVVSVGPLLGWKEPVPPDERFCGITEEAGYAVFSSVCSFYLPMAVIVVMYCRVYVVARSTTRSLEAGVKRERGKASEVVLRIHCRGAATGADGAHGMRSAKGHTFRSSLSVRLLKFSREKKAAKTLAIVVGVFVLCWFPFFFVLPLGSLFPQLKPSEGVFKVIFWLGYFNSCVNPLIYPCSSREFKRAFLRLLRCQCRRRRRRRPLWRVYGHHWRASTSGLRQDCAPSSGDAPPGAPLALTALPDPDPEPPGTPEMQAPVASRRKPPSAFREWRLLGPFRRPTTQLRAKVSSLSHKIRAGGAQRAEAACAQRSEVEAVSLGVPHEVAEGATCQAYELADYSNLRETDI

[4] = target: T3, Alpha-1A adrenergic receptor (Homo sapiens, UniProt P35348); experiment: Binding affinity against human Alpha-1a adrenergic receptor was evaluated by cloned receptor binding assay
T3 sequence (P35348 whole entry): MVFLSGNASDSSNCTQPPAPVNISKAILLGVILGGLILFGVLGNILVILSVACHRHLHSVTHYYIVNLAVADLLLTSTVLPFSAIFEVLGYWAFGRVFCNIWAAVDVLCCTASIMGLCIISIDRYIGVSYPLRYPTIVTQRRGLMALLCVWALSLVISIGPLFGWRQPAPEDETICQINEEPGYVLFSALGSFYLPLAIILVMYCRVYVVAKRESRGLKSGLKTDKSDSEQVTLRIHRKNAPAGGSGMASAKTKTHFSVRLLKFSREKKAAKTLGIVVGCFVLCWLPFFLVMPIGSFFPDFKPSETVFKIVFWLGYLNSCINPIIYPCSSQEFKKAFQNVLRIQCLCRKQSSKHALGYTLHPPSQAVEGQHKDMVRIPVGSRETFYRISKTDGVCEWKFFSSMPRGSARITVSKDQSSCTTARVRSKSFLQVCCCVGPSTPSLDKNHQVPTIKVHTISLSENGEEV

Chain of Mu-type opioid receptor (P42866 whole entry): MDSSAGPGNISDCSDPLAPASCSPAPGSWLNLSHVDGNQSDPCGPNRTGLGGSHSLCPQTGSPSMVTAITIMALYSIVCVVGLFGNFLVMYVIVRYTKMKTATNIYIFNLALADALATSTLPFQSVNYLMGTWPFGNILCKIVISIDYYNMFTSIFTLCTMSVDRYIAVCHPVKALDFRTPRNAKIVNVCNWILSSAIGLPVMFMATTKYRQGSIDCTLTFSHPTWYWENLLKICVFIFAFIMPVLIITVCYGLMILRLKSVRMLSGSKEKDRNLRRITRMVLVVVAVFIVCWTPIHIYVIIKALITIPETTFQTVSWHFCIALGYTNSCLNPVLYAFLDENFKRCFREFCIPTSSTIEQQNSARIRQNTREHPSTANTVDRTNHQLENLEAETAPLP

SMILES: CCOC(=O)C1CNCCC1c1ccccc1 (racemic)
- Ki [1]: 24000 nM

SMILES: CCOC(=O)[C@H]1CNCC[C@H]1c1ccccc1
- Ki [1]: 12000 nM

SMILES: CCOC(=O)[C@H]1CN(CCCCN2C(=O)c3cc(Cl)ccc3S2(=O)=O)CC[C@H]1c1ccccc1
- Ki [2]: > 2000 nM
- Ki [3]: 1100 nM
- Ki [4]: 98 nM

SMILES: CCOC(=O)[C@H]1CN(CCCCN2C(=O)c3cc(Cl)ccc3S2(=O)=O)CC[C@@H]1c1ccccc1 (racemic)
- Ki [2]: 1400 nM
- Ki [3]: 320 nM
- Ki [4]: 100 nM

SMILES: O=C1c2ccccc2S(=O)(=O)N1CCCCN1CCN(c2ncccn2)CC1 [IPSAPIRONE]
- Ki [2]: 220 nM
- Ki [3]: 46 nM
- Ki [4]: 87 nM

SMILES: COC(=O)C1(c2ccccc2)CCN(CCCCN2C(=O)c3cc(Cl)ccc3S2(=O)=O)CC1
- Ki [2]: 2200 nM
- Ki [3]: 2000 nM
- Ki [4]: 44 nM

SMILES: CCOC(=O)C1CN(CCCCN2C(=O)c3cc(Cl)ccc3S2(=O)=O)CCC1c1ccccc1 (racemic)
- Ki [2]: 940 nM
- Ki [3]: 1800 nM
- Ki [4]: 3 nM

SMILES: CCOC(=O)[C@@H]1CNCC[C@@H]1c1ccccc1
- Ki [1]: 7600 nM

SMILES: CCOC(=O)[C@@H]1CN(CCCCN2C(=O)c3cc(Cl)ccc3S2(=O)=O)CC[C@@H]1c1ccccc1
- Ki [2]: 170 nM
- Ki [3]: 480 nM
- Ki [4]: 0.51 nM
